Test results: PubChem BioAssay AID248 (DTP/NCI, 2004)
Several values for one entry are separate records, joined by “and”; a condition that tells them apart may be missing. Identical values can stand only once. Toxic doses and inconclusive results are not listed. Rule as the data show it: active = T/C of 150% or more; inactive = T/C below 125%.

System: L1210 leukemia ip in BDF1 mice, survival T/C
Experiment: NCI In Vivo Anticancer Drug Screen. Data for tumor model L1210 Leukemia (intraperitoneal) in B6D2F1 (BDF1) mice
Conditions: endpoint: mean survival time, higher = longer survival
In short: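 Read-out is survival time, reported as the treated-group measurement over the vehicle-control measurement.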

[1] = dose: 50.0 mg/kg/injection, schedule: Q01DX009 (ip), vehicle: Klucel (hydroxypropylcellulose) (HPC)
[2] = dose: 100.0 mg/kg/injection, schedule: Q01DX009 (ip), vehicle: Klucel (hydroxypropylcellulose) (HPC)
[3] = dose: 75.0 mg/kg/injection, schedule: Q04DX003 (ip), vehicle: Klucel (hydroxypropylcellulose) (HPC)
[4] = dose: 150.0 mg/kg/injection, schedule: Q04DX003 (ip), vehicle: Klucel (hydroxypropylcellulose) (HPC)
[5] = dose: 300.0 mg/kg/injection, schedule: Q04DX003 (ip), vehicle: Klucel (hydroxypropylcellulose) (HPC)
[6] = dose: 100.0 mg/kg/injection, schedule: Q01DX009 (ip), vehicle: saline
[7] = dose: 100.0 mg/kg/injection, schedule: Q04DX003 (ip), vehicle: saline
[8] = dose: 200.0 mg/kg/injection, schedule: Q01DX009 (ip), vehicle: saline
[9] = dose: 200.0 mg/kg/injection, schedule: Q04DX003 (ip), vehicle: saline
[10] = dose: 400.0 mg/kg/injection, schedule: Q01DX009 (ip), vehicle: saline
[11] = dose: 400.0 mg/kg/injection, schedule: Q04DX003 (ip), vehicle: saline
[12] = dose: 100.0 mg/kg/injection, schedule: Q01DX009 (ip), vehicle: saline with Tween-80
[13] = dose: 200.0 mg/kg/injection, schedule: Q01DX009 (ip), vehicle: saline with Tween-80
[14] = dose: 400.0 mg/kg/injection, schedule: Q01DX009 (ip), vehicle: saline with Tween-80
[15] = dose: 100.0 mg/kg/injection, schedule: Q01DX001 (ip), vehicle: saline
[16] = dose: 200.0 mg/kg/injection, schedule: Q01DX001 (ip), vehicle: saline
[17] = dose: 400.0 mg/kg/injection, schedule: Q01DX001 (ip), vehicle: saline
[18] = dose: 100.0 mg/kg/injection, schedule: Q04DX003 (ip), vehicle: saline with Tween-80
[19] = dose: 200.0 mg/kg/injection, schedule: Q04DX003 (ip), vehicle: saline with Tween-80
[20] = dose: 400.0 mg/kg/injection, schedule: Q04DX003 (ip), vehicle: saline with Tween-80

Measured: T/C

CCOC(=O)c1ccc(NCC2=Nc3c(N)nc(N)nc3NC2)cc1
inactive: dose: 3.0 mg/kg/injection, schedule: Q01DX009 (ip), vehicle: Klucel (hydroxypropylcellulose) (HPC) 92 % of control | dose: 6.0 mg/kg/injection, schedule: Q01DX009 (ip), vehicle: Klucel (hydroxypropylcellulose) (HPC) 97 % of control | dose: 12.0 mg/kg/injection, schedule: Q01DX009 (ip), vehicle: Klucel (hydroxypropylcellulose) (HPC) 101 % of control and 108 % of control | dose: 25.0 mg/kg/injection, schedule: Q01DX009 (ip), vehicle: Klucel (hydroxypropylcellulose) (HPC) 97 % of control | [1] 90 % of control | [2] 89 % of control

Cc1c2ccncc2cc2c3ccccc3n(C)c12
inactive: dose: 37.5 mg/kg/injection, schedule: Q04DX003 (ip), vehicle: Klucel (hydroxypropylcellulose) (HPC) 98 % of control | [3] 103 % of control | [4] 102 % of control | [5] 115 % of control

O=C(CSc1ccc(Cl)cc1)Nc1ccccc1
inactive: dose: 100.0 mg/kg/injection, schedule: Q04DX002 (ip), vehicle: gum acacia 92 % of control | dose: 200.0 mg/kg/injection, schedule: Q04DX002 (ip), vehicle: gum acacia 87 % of control | dose: 400.0 mg/kg/injection, schedule: Q04DX002 (ip), vehicle: gum acacia 89 % of control

CC(C=C1CCCCC1)C(=O)O (centres undefined)
inactive: [6] 95 % of control | [7] 102 % of control | [8] 105 % of control | [9] 102 % of control | [10] 97 % of control | [11] 105 % of control

C=CC(C)=O.C=CC(C)=O.C=CC(C)=O.[W]
inactive: dose: 100.0 mg/kg/injection, schedule: Q04DX003 (ip), vehicle: other 94 % of control | dose: 200.0 mg/kg/injection, schedule: Q04DX003 (ip), vehicle: other 92 % of control | dose: 400.0 mg/kg/injection, schedule: Q04DX003 (ip), vehicle: other 97 % of control

O=C(CCl)NCC1(c2ccc(Cl)cc2)SC(CNC(=O)CCl)(c2ccc(Cl)cc2)S1 (centres undefined)
inactive: [12] 97 % of control | [13] 92 % of control | [14] 104 % of control

O=P1(O)Cc2ccccc2-c2ccccc21
inactive: dose: 100.0 mg/kg/injection, schedule: Q01DX001 (ip), vehicle: other 96 % of control | dose: 200.0 mg/kg/injection, schedule: Q01DX001 (ip), vehicle: other 101 % of control | dose: 400.0 mg/kg/injection, schedule: Q01DX001 (ip), vehicle: other 98 % of control

CC12CCC3C(CCC4CC(O)CCC43C)C1CCCC2=O (centres undefined)
inactive: dose: 75.0 mg/kg/injection, schedule: Q04DX003 (sc), vehicle: steriod suspending solution 102 % of control | dose: 150.0 mg/kg/injection, schedule: Q04DX003 (sc), vehicle: steriod suspending solution 93 % of control | dose: 300.0 mg/kg/injection, schedule: Q04DX003 (sc), vehicle: steriod suspending solution 91 % of control

O=C(CCCC(=O)N/N=C/c1c2ccccc2cc2ccccc12)N/N=C/c1c2ccccc2cc2ccccc12
inactive: dose: 50.0 mg/kg/injection, schedule: Q01DX001 (ip), vehicle: saline 100 % of control | [15] 102 % of control | [16] 96 % of control | [17] 96 % of control

CCn1nnc2c(N(C)C)nc(N)nc21
inactive: [1] 93 % of control | [2] 95 % of control | dose: 100.0 mg/kg/injection, schedule: Q04DX003 (ip), vehicle: Klucel (hydroxypropylcellulose) (HPC) 93 % of control | dose: 200.0 mg/kg/injection, schedule: Q04DX003 (ip), vehicle: Klucel (hydroxypropylcellulose) (HPC) 92 % of control

O=C(Nc1cccc2ccccc12)c1ccc([N+](=O)[O-])s1
inactive: dose: 50.0 mg/kg/injection, schedule: Q01DX005 (ip), vehicle: water 87 % of control | dose: 100.0 mg/kg/injection, schedule: Q01DX005 (ip), vehicle: water 89 % of control | dose: 200.0 mg/kg/injection, schedule: Q01DX005 (ip), vehicle: water 87 % of control | dose: 400.0 mg/kg/injection, schedule: Q01DX005 (ip), vehicle: water 91 % of control

CC(Br)CNC(=O)c1cc([N+](=O)[O-])cc([N+](=O)[O-])c1 (centres undefined)
inactive: [3] 96 % of control | [4] 92 % of control | [5] 94 % of control

CCCCCCCCCCCCOC(=O)OC1CCC2(C)C(=CCC3C2CCC2(C)C(C(C)CCCC(C)C)CCC32)C1 (centres undefined)
inactive: dose: 100.0 mg/kg/injection, schedule: Q01DX008 (sc), vehicle: olive oil, sesame oil, peanut oil 111 % of control | dose: 100.0 mg/kg/injection, schedule: Q04DX003 (sc), vehicle: olive oil, sesame oil, peanut oil 109 % of control | dose: 200.0 mg/kg/injection, schedule: Q01DX008 (sc), vehicle: olive oil, sesame oil, peanut oil 107 % of control | dose: 200.0 mg/kg/injection, schedule: Q04DX003 (sc), vehicle: olive oil, sesame oil, peanut oil 100 % of control | dose: 400.0 mg/kg/injection, schedule: Q01DX008 (sc), vehicle: olive oil, sesame oil, peanut oil 107 % of control | dose: 400.0 mg/kg/injection, schedule: Q04DX003 (sc), vehicle: olive oil, sesame oil, peanut oil 109 % of control

Nc1ccc(SCc2nc3cccc4c3n2CCC4)cc1
inactive: [12] 88 % of control | [18] 96 % of control | [13] 96 % of control | [19] 94 % of control | [14] 105 % of control | [20] 92 % of control

CC(=O)/C(=C/c1ccccc1)c1ccccc1
inactive: dose: 75.0 mg/kg/injection, schedule: Q01DX009 (ip), vehicle: Klucel (hydroxypropylcellulose) (HPC) 95 % of control | [3] 104 % of control | dose: 150.0 mg/kg/injection, schedule: Q01DX009 (ip), vehicle: Klucel (hydroxypropylcellulose) (HPC) 106 % of control | [4] 100 % of control | dose: 300.0 mg/kg/injection, schedule: Q01DX009 (ip), vehicle: Klucel (hydroxypropylcellulose) (HPC) 102 % of control | [5] 104 % of control

O=C1CCSCCN1
inactive: [6] 98 % of control | [7] 97 % of control | [8] 103 % of control | [9] 97 % of control | [10] 101 % of control | [11] 95 % of control

N#CC(C#N)=NNc1ccc(S(=O)(=O)O)cc1
inactive: [18] 94 % of control | [19] 107 % of control | [20] 102 % of control

S=P(S)(Oc1ccc(Cl)cc1Cl)Oc1ccc(Cl)cc1Cl.[Cd]
inactive: dose: 25.0 mg/kg/injection, schedule: Q04DX002 (ip), vehicle: saline with Tween-80 89 % of control | dose: 50.0 mg/kg/injection, schedule: Q04DX002 (ip), vehicle: saline with Tween-80 92 % of control | dose: 100.0 mg/kg/injection, schedule: Q04DX002 (ip), vehicle: saline with Tween-80 123 % of control

Cc1ccc(S(=O)(=O)NC(CCl)=NC2CCCCC2)cc1
inactive: dose: 100.0 mg/kg/injection, schedule: Q04DX002 (ip), vehicle: Klucel (hydroxypropylcellulose) (HPC) 96 % of control | dose: 200.0 mg/kg/injection, schedule: Q04DX002 (ip), vehicle: Klucel (hydroxypropylcellulose) (HPC) 100 % of control | dose: 400.0 mg/kg/injection, schedule: Q04DX002 (ip), vehicle: Klucel (hydroxypropylcellulose) (HPC) 103 % of control

C=C[N+](C)(C)C
inactive: dose: 5.0 mg/kg/injection, schedule: Q01DX001 (ip), vehicle: saline 100 % of control | dose: 10.0 mg/kg/injection, schedule: Q01DX001 (ip), vehicle: saline 107 % of control | dose: 20.0 mg/kg/injection, schedule: Q01DX001 (ip), vehicle: saline 103 % of control | dose: 40.0 mg/kg/injection, schedule: Q01DX001 (ip), vehicle: saline 103 % of control

O=C1C=C(c2ccccc2)CO1
inactive: [15] 104 % of control | [16] 122 % of control | [17] 98 % of control

NC1=NN(c2c(Cl)cc(Cl)cc2Cl)C(=O)C1
inactive: [15] 96 % of control | [16] 94 % of control | [17] 100 % of control
